pIC50: −log10 of the molar value.
molecular target: CDK12/CycK (Homo sapiens, UniProt Q9NYV4); experiment: Inhibition of CDK12 (ADP-Glo kinase assay); assay type: biochemical; details: 60 nM CDK12/CycK, 30 minutes pre-incubation, 1 μM ATP, 0.5 μM RBER-IRStide substrate, 1 h at 25° C., read-out: CDK12/cyclin K IC50
Method: Assay buffer comprised 50 mM HEPES pH 7.5, 1 mM DTT, 20 mM MgCl2, 3 mM MnCl2, 3 μM Na3VO4 and 50 μg/ml PEG8000. Kinase reactions were carried out in 384-well Optiplates™ (PerkinElmer 6007299). Test compounds were dissolved & diluted in dimethyl sulfoxide (DMSO) and cross diluted into assay buffer with a final DMSO concentration of 1% (v/v) in the assay. Test compounds (or 1% DMSO in control and blank wells) were pre-incubated with 60 nM CDK12/CycK for 30 minutes. After this time 1 μM Adenosine-5′-triphosphate (ATP) and 0.5 μM RBER-IRStide substrate (ProQinase 0863-0000-1) were added to commence the kinase reaction. Incubations were carried out for 1 h at 25° C. with kinase activity determined using the ADP-Glo™ reagent from Promega according to the manufacturer's instructions. Light generated is proportional to kinase activity and measured using a luminometer (EnVision, PerkinElmer). The signal obtained in the blank wells (containing no kinase) was subtracted from all other wells and IC50 values were determined by fitting a sigmoidal curve to % inhibition of control versus Log10 compound concentration.

Chain of CDK12/CycK (Q9NYV4 whole entry): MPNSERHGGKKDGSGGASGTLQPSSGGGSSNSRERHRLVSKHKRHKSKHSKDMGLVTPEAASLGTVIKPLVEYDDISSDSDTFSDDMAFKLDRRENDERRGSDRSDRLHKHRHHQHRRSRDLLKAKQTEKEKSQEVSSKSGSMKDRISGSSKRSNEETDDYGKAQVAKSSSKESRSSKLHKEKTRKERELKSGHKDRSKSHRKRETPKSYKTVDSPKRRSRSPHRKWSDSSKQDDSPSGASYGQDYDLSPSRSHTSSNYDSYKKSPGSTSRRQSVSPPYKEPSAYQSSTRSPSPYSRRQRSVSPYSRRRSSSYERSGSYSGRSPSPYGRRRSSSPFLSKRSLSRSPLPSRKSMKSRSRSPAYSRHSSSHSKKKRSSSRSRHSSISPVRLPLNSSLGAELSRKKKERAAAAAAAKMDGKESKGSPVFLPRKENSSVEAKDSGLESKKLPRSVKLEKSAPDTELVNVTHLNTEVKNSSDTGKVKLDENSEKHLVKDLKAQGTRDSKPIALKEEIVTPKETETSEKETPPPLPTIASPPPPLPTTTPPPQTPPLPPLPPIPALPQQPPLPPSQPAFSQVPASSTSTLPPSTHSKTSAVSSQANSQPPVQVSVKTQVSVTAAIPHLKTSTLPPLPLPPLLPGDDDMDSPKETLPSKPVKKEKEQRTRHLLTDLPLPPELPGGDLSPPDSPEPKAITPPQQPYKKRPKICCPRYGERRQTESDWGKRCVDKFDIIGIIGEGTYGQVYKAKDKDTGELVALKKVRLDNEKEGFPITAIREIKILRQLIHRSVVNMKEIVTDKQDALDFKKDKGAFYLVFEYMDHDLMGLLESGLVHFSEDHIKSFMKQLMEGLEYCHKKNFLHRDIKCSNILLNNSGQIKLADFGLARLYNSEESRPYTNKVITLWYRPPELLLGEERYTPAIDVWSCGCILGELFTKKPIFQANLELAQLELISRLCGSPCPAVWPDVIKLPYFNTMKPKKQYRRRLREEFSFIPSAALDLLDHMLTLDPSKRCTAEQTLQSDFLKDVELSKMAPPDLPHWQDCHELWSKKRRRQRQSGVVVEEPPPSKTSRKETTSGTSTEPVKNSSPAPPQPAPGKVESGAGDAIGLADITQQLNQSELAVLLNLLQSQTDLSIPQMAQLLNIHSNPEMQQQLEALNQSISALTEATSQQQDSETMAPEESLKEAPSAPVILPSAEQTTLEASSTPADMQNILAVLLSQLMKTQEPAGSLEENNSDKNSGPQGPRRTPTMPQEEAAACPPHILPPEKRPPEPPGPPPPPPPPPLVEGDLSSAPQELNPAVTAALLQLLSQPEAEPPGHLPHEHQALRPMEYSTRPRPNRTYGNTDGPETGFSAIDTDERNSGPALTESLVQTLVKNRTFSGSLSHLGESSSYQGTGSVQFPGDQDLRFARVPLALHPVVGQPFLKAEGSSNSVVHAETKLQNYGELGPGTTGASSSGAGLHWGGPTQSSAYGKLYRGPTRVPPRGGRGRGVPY
Chain of CDK12/CycK (O75909 whole entry partner): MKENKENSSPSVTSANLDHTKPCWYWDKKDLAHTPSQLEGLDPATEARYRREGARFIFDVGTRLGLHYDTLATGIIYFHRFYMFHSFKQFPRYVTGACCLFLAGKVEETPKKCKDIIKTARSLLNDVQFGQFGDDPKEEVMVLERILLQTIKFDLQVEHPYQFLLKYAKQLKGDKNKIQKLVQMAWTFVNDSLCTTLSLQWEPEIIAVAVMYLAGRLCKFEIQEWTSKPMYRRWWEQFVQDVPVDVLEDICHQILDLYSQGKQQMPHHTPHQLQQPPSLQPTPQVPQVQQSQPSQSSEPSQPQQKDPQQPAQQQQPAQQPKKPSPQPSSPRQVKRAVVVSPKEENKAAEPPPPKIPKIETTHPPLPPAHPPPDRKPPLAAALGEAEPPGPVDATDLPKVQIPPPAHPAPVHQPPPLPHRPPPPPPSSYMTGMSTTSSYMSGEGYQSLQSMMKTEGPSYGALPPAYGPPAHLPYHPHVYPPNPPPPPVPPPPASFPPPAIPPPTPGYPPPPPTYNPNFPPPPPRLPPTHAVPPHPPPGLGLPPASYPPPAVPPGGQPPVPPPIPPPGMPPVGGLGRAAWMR

| Compound | pIC50 |
| --- | --- |
| C=CC(=O)N1CCC1C(=O)NCCc1cc2c(-c3cnn4ncccc34)ccnc2[nH]1 (single isomer, unassigned) [Example 40] | > 7.00 |
| C=CC(=O)N1CCO[C@@H](C(=O)NCCc2cc3c(-c4cnn5ncccc45)ccnc3[nH]2)C1 (single isomer, unassigned) [Example 61] | > 7.00 |
| CC(=O)N1CCO[C@H](C(=O)NCCc2cc3c(-c4cnn5ncccc45)ccnc3[nH]2)C1 (single isomer, unassigned) [Example 62] | > 7.00 |
| c1cnn2ncc(-c3ccnc4[nH]c([C@@H]5CCNC5)cc34)c2c1 (single isomer, unassigned) [Example 124, 3-(2-(Pyrrolidin-3-yl)-1H-pyrrolo[2,3-b]pyridin-4-yl)pyrazolo[1,5-b]pyridazine] | 6.00 to 7.00 |
| c1cnn2ncc(-c3ccnc4[nH]c([C@H]5CCNC5)cc34)c2c1 (single isomer, unassigned) [Example 125, 3-(2-(Pyrrolidin-3-yl)-1H-pyrrolo[2,3-b]pyridin-4-yl)pyrazolo[1,5-b]pyridazine] | 6.00 to 7.00 |
| C=CC(=O)Nc1ccc(C(=O)N2CC[C@@H](c3cc4c(-c5cnn6ncccc56)ccnc4[nH]3)C2)cc1 (single isomer, unassigned) [Example 148, N-(4-(3-(4-(Pyrazolo[1,5-b]pyridazin-3-yl)-1H-pyrrolo[2,3-b]pyridin-2-yl)pyrrolidine-1-carbonyl)phenyl)acrylamide] | > 7.00 |
| C=CC(=O)Nc1cccc(C(=O)N2CC[C@@H](c3cc4c(-c5cnn6ncccc56)ccnc4[nH]3)C2)c1 (single isomer, unassigned) [Example 149, N-(3-(3-(4-(Pyrazolo[1,5-b]pyridazin-3-yl)-1H-pyrrolo[2,3-b]pyridin-2-yl)pyrrolidine-1-carbonyl)phenyl)acrylamide] | > 7.00 |
| Cc1cc(-c2cnn3ncccc23)c2cc[nH]c2n1 [Example 1, 3-(6-Methyl-1H-pyrrolo[2,3-b]pyridin-4-yl)pyrazolo[1,5-b]pyridazine] | 4.52 to 6.00 |
| CN(C)C(=O)c1cc2c(-c3cnn4ncccc34)ccnc2[nH]1 [Example 2, N,N-Dimethyl-4-(pyrazolo[1,5-b]pyridazin-3-yl)-1H-pyrrolo[2,3-b]pyridine-2-carboxamide] | 4.52 to 6.00 |
| COCCNC(=O)c1cc2c(-c3cnn4ncccc34)ccnc2[nH]1 [Example 3, N-(2-Methoxyethyl)-4-(pyrazolo[1,5-b]pyridazin-3-yl)-1H-pyrrolo[2,3-b]pyridine-2-carboxamide] | 4.52 to 6.00 |
| CC(C)CNC(=O)c1cc2c(-c3cnn4ncccc34)ccnc2[nH]1 [Example 4, N-Isobutyl-4-(pyrazolo[1,5-b]pyridazin-3-yl)-1H-pyrrolo[2,3-b]pyridine-2-carboxamide] | 4.52 to 6.00 |
| CN(C)CCNC(=O)c1cc2c(-c3cnn4ncccc34)ccnc2[nH]1 [Example 5, N-(2-(Dimethylamino)ethyl)-4-(pyrazolo[1,5-b]pyridazin-3-yl)-1H-pyrrolo[2,3-b]pyridine-2-carboxamide] | 4.52 to 6.00 |
| Cc1c[nH]c2nccc(-c3cnn4ncccc34)c12 [Example 8, 3-(3-Methyl-1H-pyrrolo[2,3-b]pyridin-4-yl)pyrazolo[1,5-b]pyridazine] | 4.52 to 6.00 |
| Cc1cnc2[nH]ccc2c1-c1cnn2ncccc12 [Example 9, 3-(5-Methyl-1H-pyrrolo[2,3-b]pyridin-4-yl)pyrazolo[1,5-b]pyridazine] | 4.52 to 6.00 |
| c1cnn2ncc(-c3ccnc4[nH]c(CN5CCOCC5)cc34)c2c1 [Example 12, 4-((4-(Pyrazolo[1,5-b]pyridazin-3-yl)-1H-pyrrolo[2,3-b]pyridin-2-yl)methyl)morpholine] | 4.52 to 6.00 |
| O=C(CN1CCOCC1)NCc1cc2c(-c3cnn4ncccc34)ccnc2[nH]1 [Example 13, 2-Morpholino-N-((4-(pyrazolo[1,5-b]pyridazin-3-yl)-1H-pyrrolo[2,3-b]pyridin-2-yl)methyl)acetamide] | 4.52 to 6.00 |
| CN1CCN(CC(=O)NCc2cc3c(-c4cnn5ncccc45)ccnc3[nH]2)CC1 [Example 14, 2-(4-Methylpiperazin-1-yl)-N-((4-(pyrazolo[1,5-b]pyridazin-3-yl)-1H-pyrrolo[2,3-b]pyridin-2-yl)methyl)acetamide] | 4.52 to 6.00 |
| CC(C)(C)OC(=O)N1CCN(Cc2cc3c(-c4cnn5ncccc45)ccnc3[nH]2)CC1 [Example 15, tert-Butyl 4-((4-(pyrazolo[1,5-b]pyridazin-3-yl)-1H-pyrrolo[2,3-b]pyridin-2-yl)methyl)piperazine-1-carboxylate] | 4.52 to 6.00 |

| Compound | pIC50 |
| --- | --- |
| CN1CCN(Cc2cc3c(-c4cnn5ncccc45)ccnc3[nH]2)CC1 [Example 16, 3-(2-((4-Methylpiperazin-1-yl)methyl)-1H-pyrrolo[2,3-b]pyridin-4-yl)pyrazolo[1,5-b]pyridazine] | 6.00 to 7.00 |
| CN(C)CCNCc1cc2c(-c3cnn4ncccc34)ccnc2[nH]1 [Example 17, N1,N1-Dimethyl-N2-((4-(pyrazolo[1,5-b]pyridazin-3-yl)-1H-pyrrolo[2,3-b]pyridin-2-yl)methyl)ethane-1,2-diamine] | 4.52 to 6.00 |
| c1ccn2ncc(-c3ccnc4[nH]ccc34)c2c1 [Example 18, 4-(Pyrazolo[1,5-a]pyridin-3-yl)-1H-pyrrolo[2,3-b]pyridine] | 4.52 to 6.00 |
| CCn1nccc1-c1ccnc2[nH]ccc12 [Example 19, 4-(1-Ethyl-1H-pyrazol-5-yl)-1H-pyrrolo[2,3-b]pyridine] | 4.52 to 6.00 |
| COc1cnn2ncc(-c3ccnc4[nH]ccc34)c2c1 [Example 23, 5-Methoxy-3-(1H-pyrrolo[2,3-b]pyridin-4-yl)pyrazolo[1,5-b]pyridazine] | 4.52 to 6.00 |
| COCCOc1cnn2ncc(-c3ccnc4[nH]ccc34)c2c1 [Example 24, 5-(2-Methoxyethoxy)-3-(1H-pyrrolo[2,3-b]pyridin-4-yl)pyrazolo[1,5-b]pyridazine] | 4.52 to 6.00 |
| CC1(C)OCC(COc2cnn3ncc(-c4ccnc5[nH]ccc45)c3c2)O1 (stereo not drawn) [Example 25, 5-((2,2-Dimethyl-1,3-dioxolan-4-yl)methoxy)-3-(1H-pyrrolo[2,3-b]pyridin-4-yl)pyrazolo[1,5-b]pyridazine] | 4.52 to 6.00 |
| Cc1ccc2c(-c3ccnc4[nH]ccc34)cnn2n1 [Example 26, 6-Methyl-3-(1H-pyrrolo[2,3-b]pyridin-4-yl)pyrazolo[1,5-b]pyridazine] | 4.52 to 6.00 |
| c1cnc2ncc(-c3ccnc4[nH]ccc34)n2c1 [Example 29, 3-(1H-Pyrrolo[2,3-b]pyridin-4-yl)imidazo[1,2-a]pyrimidine] | 4.52 to 6.00 |
| NCCc1cc2c(-c3cnn4ncccc34)ccnc2[nH]1 [Example 30, 2-(4-(Pyrazolo[1,5-b]pyridazin-3-yl)-1H-pyrrolo[2,3-b]pyridin-2-yl)ethan-1-amine] | 6.00 to 7.00 |
| CCNCCc1cc2c(-c3cnn4ncccc34)ccnc2[nH]1 [Example 31, N-ethyl-2-(4-(pyrazolo[1,5-b]pyridazin-3-yl)-1H-pyrrolo[2,3-b]pyridin-2-yl)ethan-1-amine] | 6.00 to 7.00 |
| O=C(NCCc1cc2c(-c3cnn4ncccc34)ccnc2[nH]1)[C@@H]1CCCN1C(=O)CCl [Example 41, (S)-1-(2-Chloroacetyl)-N-(2-(4-(pyrazolo[1,5-b]pyridazin-3-yl)-1H-pyrrolo[2,3-b]pyridin-2-yl)ethyl)pyrrolidine-2-carboxamide] | 6.00 to 7.00 |
| C=CC(=O)N1CCC[C@H]1C(=O)N(C)CCc1cc2c(-c3cnn4ncccc34)ccnc2[nH]1 [Example 46, (S)-1-Acryloyl-N-methyl-N-(2-(4-(pyrazolo[1,5-b]pyridazin-3-yl)-1H-pyrrolo[2,3-b]pyridin-2-yl)ethyl)pyrrolidine-2-carboxamide] | 6.00 to 7.00 |
| C=CC(=O)N1CCC[C@@H]1C(=O)N(C)CCc1cc2c(-c3cnn4ncccc34)ccnc2[nH]1 [Example 47, (R)-1-Acryloyl-N-methyl-N-(2-(4-(pyrazolo[1,5-b]pyridazin-3-yl)-1H-pyrrolo[2,3-b]pyridin-2-yl)ethyl)pyrrolidine-2-carboxamide] | 4.52 to 6.00 |
| C=CC(=O)N1CCC[C@H](C(=O)N(C)CCc2cc3c(-c4cnn5ncccc45)ccnc3[nH]2)C1 [Example 48, (S)-1-Acryloyl-N-methyl-N-(2-(4-(pyrazolo[1,5-b]pyridazin-3-yl)-1H-pyrrolo[2,3-b]pyridin-2-yl)ethyl)piperidine-3-carboxamide] | 6.00 to 7.00 |
| C=CC(=O)Nc1cccc(C(=O)N(C)CCc2cc3c(-c4cnn5ncccc45)ccnc3[nH]2)c1 [Example 49, 3-Acrylamido-N-methyl-N-(2-(4-(pyrazolo[1,5-b]pyridazin-3-yl)-1H-pyrrolo[2,3-b]pyridin-2-yl)ethyl)benzamide] | 6.00 to 7.00 |
| C=CC(=O)N1CCC[C@H]1C(=O)N(CC)CCc1cc2c(-c3cnn4ncccc34)ccnc2[nH]1 [Example 50, (S)-1-Acryloyl-N-ethyl-N-(2-(4-(pyrazolo[1,5-b]pyridazin-3-yl)-1H-pyrrolo[2,3-b]pyridin-2-yl)ethyl)pyrrolidine-2-carboxamide] | 4.52 to 6.00 |
| C=CC(=O)N1CCC[C@H]1C(=O)NCCc1cc2c(-c3ccnn3C)ccnc2[nH]1 [Example 51, (S)-1-Acryloyl-N-(2-(4-(1-methyl-1H-pyrazol-5-yl)-1H-pyrrolo[2,3-b]pyridin-2-yl)ethyl)pyrrolidine-2-carboxamide] | 4.52 to 6.00 |
